These results are taken from patent US9963464B2, “Macrocyclic compounds” (Bayer Pharma Aktiengesellschaft, priority 2014, dated 2018).

Where two headings read alike, the source gives them in different places.

The target of one experiment is T1, CDK9/CycT1 (Homo sapiens, UniProt P50750).
T1 construct: Recombinant full-length His-tagged human CDK9 and CycT1; His; purchased Invitrogen PV4131; host or cells: insect cells
Put plainly: CDK9/CycT1 kinase assay (TR-FRET, Method 1a). The format is biochemical. As to conditions: for IC50: Method 1a, 10 μM ATP; for Selectivity CDK9 over CDK2: IC50 (CDK2)/IC50 (CDK9): Methods 1a and 2a, minimal values where CDK9 IC50 is at the assay limit. The source says: 1a. CDK9/CycT1 Kinase Assay:
CDK9/CycT1-inhibitory activity of compounds of the present invention was quantified employing the CDK9/CycT1 TR-FRET assay as described in the following paragraphs:
Recombinant full-length His-tagged human CDK9 and CycT1, expressed in insect cells and purified by Ni-NTA affinity chromatography, were purchased from Invitrogen (Cat. No PV4131). As substrate for the kinase reaction biotinylated peptide biotin-Ttds-YISPLKSPYKISEG (C-terminus in amid form) was used which can be purchased e.g. from the company JERINI Peptide Technologies (Berlin, Germany). For the assay 50 nl of a 100 fold concentrated solution of the test compound in DMSO was pipetted into a black low volume 384 well microtiter plate (Greiner Bio-One, Frickenhausen, Germany), 2 μl of a solution of CDK9/CycT1 in aqueous assay buffer [50 mM Tris/HCl pH 8.0, 10 mM MgCl2, 1.0 mM dithiothreitol, 0.1 mM sodium ortho-vanadate, 0.01% (v/v) Nonidet-P40 (Sigma)] were added and the mixture was incubated for 15 min at 22° C. to allow pre-binding of the test compounds to the enzyme before the start of the kinase reaction. […] The concentration of CDK9/CycT1 was adjusted depending of the activity of the enzyme lot and was chosen appropriate to have the assay in the linear range, typical concentrations were in the range of 1 μg/mL. The reaction was stopped by the addition of 5 μl of a solution of TR-FRET detection reagents (0.2 μM streptavidine-XL665 [Cisbio Bioassays, Codolet, France] and 1 nM anti-RB(pSer807/pSer811)-antibody from BD Pharmingen [#558389] and 1.2 nM LANCE EU-W1024 labeled anti-mouse IgG antibody [Perkin-Elmer, product no. AD0077]) in an aqueous EDTA-solution (100 mM EDTA, 0.2% (w/v) bovine serum albumin in 100 mM HEPES pH 7.5).
The resulting mixture was incubated 1 h at 22° C. to allow the formation of complex between the phosphorylated biotinylated peptide and the detection reagents. Subsequently the amount of phosphorylated substrate was evaluated by measurement of the resonance energy transfer from the Eu-chelate to the streptavidine-XL. Therefore, the fluorescence emissions at 620 nm and 665 nm after excitation at 350 nm was measured in a HTRF reader, e.g. a Rubystar (BMG Labtechnologies, Offenburg, Germany) or a Viewlux (Perkin-Elmer). The ratio of the emissions at 665 nm and at […] was taken as the measure for the amount of phosphorylated substrate. The data were normalised (enzyme reaction without inhibitor=0% inhibition, all other assay components but no enzyme=100% inhibition).
Background: In TR-FRET formats the signal depends on donor and acceptor labels being close together.

The test system of a further experiment is HeLa cells. Put plainly: Proliferation assay HeLa. The format is cell-based, human. The settings on record: 4 days, crystal violet, read-out: Inhibition of HeLa cell proliferation IC50. The procedure: Cultivated tumour cells (HeLa, human cervical tumour cells, ATCC CCL-2; NCI-H460, human non-small cell lung carcinoma cells, ATCC HTB-177; A2780, human ovarian carcinoma cells, ECACC #93112519; DU 145, hormone-independent human prostate carcinoma cells, ATCC HTB-81; HeLa-MaTu-ADR, multidrug-resistant human cervical carcinoma cells, EPO-GmbH Berlin; Caco-2, human colorectal carcinoma cells, ATCC HTB-37; B16F10, mouse melanoma cells, ATCC CRL-6475) were plated at a density of 5,000 cells/well (DU145, HeLa-MaTu-ADR), 3,000 cells/well (NCI-H460, HeLa), 2,500 cells/well (A2780), 1,500 cells/well (Caco-2), or 1,000 cells/well (B16F10) in a 96-well multititer plate in 200 μL of their respective growth medium supplemented 10% fetal calf serum. After 24 hours, the cells of one plate (zero-point plate) were stained with crystal violet (see below), while the medium of the other plates was replaced by fresh culture medium (200 μl), to which the test substances were added in various concentrations (0 μM, as well as in the range of 0.001-10 μM). The cells were incubated for 4 days in the presence of test substances. Cell proliferation was determined by staining the cells with crystal violet: the cells were fixed by adding 20 μl/measuring point of an 11% glutaric aldehyde solution for 15 minutes at room temperature. After three washing cycles of the fixed cells with water, the plates were dried at room temperature. The cells were stained by adding 100 μl/measuring point of a 0.1% crystal violet solution (pH 3.0). After three washing cycles of the stained cells with water, the plates were dried at room temperature. The dye was dissolved by adding 100 μl/measuring point of a 10% acetic acid solution. The extinction was determined by photometry at a wavelength of 595 nm. The change of cell number, in percent, was calculated by normalization of the measured values to the extinction values of the zero-point plate (=0%) and the extinction of the untreated (0 μm) cells (=100%). The IC50 values (inhibitory concentration at 50% of maximal effect) were determined by means of a 4 parameter fit. Non-adherent MOLM-13 human acute myeloid leukemia cells (DSMZ ACC 554) were seeded at a density of 5,000 cells/well in a 96-well multititer plate in 100 μL of growth medium supplemented 10% fetal calf serum. After 24 hours, cell viability of one plate (zero-point plate) was determined with the Cell Titre-Glo Luminescent Cell Viability Assay (Promega), while 50 μL of test compound containing medium was added to the wells of the other plates (final concentrations in the range of 0.001-1 μM and DMSO controls). Cell viability was assessed after 72-hour exposure with the Cell Titre-Glo Luminescent Cell Viability Assay (Promega). IC50 values (inhibitory concentration at 50% of maximal effect) were determined by means of a 4 parameter fit on measurement data which were normalized to vehicle (DMSO) treated cells (=100%) and measurement readings taken immediately before compound exposure (=0%).

T1 sequence (P50750 whole entry): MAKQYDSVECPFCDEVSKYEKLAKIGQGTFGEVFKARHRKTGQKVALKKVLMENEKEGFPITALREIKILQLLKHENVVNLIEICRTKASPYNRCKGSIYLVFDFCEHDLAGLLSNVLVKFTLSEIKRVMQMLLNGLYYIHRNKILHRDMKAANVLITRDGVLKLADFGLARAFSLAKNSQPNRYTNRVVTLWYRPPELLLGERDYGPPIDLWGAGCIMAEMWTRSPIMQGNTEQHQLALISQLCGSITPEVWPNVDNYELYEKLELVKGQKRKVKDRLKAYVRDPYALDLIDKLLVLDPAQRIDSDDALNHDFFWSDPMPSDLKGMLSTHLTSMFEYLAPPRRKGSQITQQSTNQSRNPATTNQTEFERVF
T1 sequence (O60563 whole entry partner): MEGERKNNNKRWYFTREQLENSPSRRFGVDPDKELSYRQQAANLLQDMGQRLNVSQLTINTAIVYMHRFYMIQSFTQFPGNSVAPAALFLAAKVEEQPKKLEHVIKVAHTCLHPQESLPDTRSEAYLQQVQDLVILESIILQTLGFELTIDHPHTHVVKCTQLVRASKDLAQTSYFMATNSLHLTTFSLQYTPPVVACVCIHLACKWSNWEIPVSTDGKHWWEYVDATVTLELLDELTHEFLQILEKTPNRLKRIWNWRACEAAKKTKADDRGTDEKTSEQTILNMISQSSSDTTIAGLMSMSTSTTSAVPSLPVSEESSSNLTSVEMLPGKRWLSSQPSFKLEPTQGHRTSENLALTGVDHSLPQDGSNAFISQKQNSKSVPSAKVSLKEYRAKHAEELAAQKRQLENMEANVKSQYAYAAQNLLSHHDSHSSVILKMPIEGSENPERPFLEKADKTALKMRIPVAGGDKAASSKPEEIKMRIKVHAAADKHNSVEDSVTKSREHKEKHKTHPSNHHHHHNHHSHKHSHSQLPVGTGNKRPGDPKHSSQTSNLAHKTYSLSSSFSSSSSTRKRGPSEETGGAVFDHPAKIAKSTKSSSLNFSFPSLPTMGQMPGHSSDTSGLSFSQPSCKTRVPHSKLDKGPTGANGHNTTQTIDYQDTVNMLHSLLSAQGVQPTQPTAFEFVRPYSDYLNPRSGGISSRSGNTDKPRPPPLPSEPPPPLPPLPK

On to `CS(=N)(=O)Cc1cc2nc(c1)OCCCOc1cc(F)ccc1-c1cc(ncc1F)N2` (single isomer, unassigned; enantiomer 2) [Example 7, 15,19-Difluoro-8-[(S-methylsulfonimidoyl)methyl]-3,4-dihydro-2H,11H-10,6-(azeno)-12,16-(metheno)-1,5,11,13-benzodioxadiazacyclooctadecine; Enantiomer 2], for which, on CDK9/CycT1, the IC50 stood at 7.3 nM and the “Selectivity CDK9 over CDK2: IC50 (CDK2)/IC50 (CDK9)” value (“Selectivity CDK9 over CDK2: IC50” for short) is listed as 0.3. The IC50 in the experiment on HeLa cells was found to be 31 nM.

`CSCc1cc2cc(c1)OCCCOc1cc(F)ccc1-c1nc(ncc1F)N2` [Example 2, 15,19-Difluoro-8-[(methylsulfanyl)methyl]-3,4-dihydro-2H,11H-12,16-(azeno)-10,6-(metheno)-1,5,11,13-benzodioxadiazacyclooctadecine]: on CDK9/CycT1, the IC50 amounted to 7.3 nM and the “Selectivity CDK9 over CDK2: IC50” value is on record as 13.5. For the same compound, in the experiment with HeLa cells (Homo sapiens, HeLa, 96 h), the IC50 was determined as 62 nM.

`CSCc1cc2nc(c1)OCCCOc1cc(F)ccc1-c1cc(ncc1F)N2` [Example 3, 15,19-Difluoro-8-[(methylsulfanyl)methyl]-3,4-dihydro-2H,11H-10,6-(azeno)-12,16-(metheno)-1,5,11,13-benzodioxadiazacyclooctadecine]: the IC50 on CDK9/CycT1 turned out to be 6.8 nM; in the experiment with HeLa cells (Homo sapiens, HeLa, 96 h), 86 nM. The “Selectivity CDK9 over CDK2: IC50” value at CDK9/CycT1 is 6.0.

As to `CS(=O)(=O)Cc1cc2nc(c1)OCCCOc1cc(F)ccc1-c1cc(ncc1F)N2` [Example 8, 15,19-difluoro-8-[(methylsulfonyl)methyl]-3,4-dihydro-2H,11H-10,6-(azeno)-12,16-(metheno)-1,5,11,13-benzodioxadiazacyclooctadecine], at CDK9/CycT1, the IC50 was determined as 3.8 nM and the “Selectivity CDK9 over CDK2: IC50” value is listed as 1.3. In the experiment with HeLa cells (Homo sapiens, HeLa, 96 h), the IC50 is 12 nM.

`CSCc1cc2nc(c1)OCCCCOc1cc(F)ccc1-c1cc(ncc1F)N2` [Example 12, 16,20-Difluoro-9-[(methylsulfanyl)methyl]-2,3,4,5-tetrahydro-12H-11,7-(azeno)-13,17-(metheno)-1,6,12,14-benzodioxadiazacyclononadecine]: on CDK9/CycT1, the IC50 was found to be 16.5 nM and the “Selectivity CDK9 over CDK2: IC50” value came to 6.9. Further, the IC50 in the experiment with HeLa cells (Homo sapiens, HeLa, 96 h) stood at 281 nM.

With `NCCS(=O)(=O)Cc1cc2nc(c1)OCCCOc1cc(F)ccc1-c1cc(ncc1F)N2` [Example 26, 2-({[15,19-difluoro-3,4-dihydro-2H,11H-10,6-(azeno)-12,16-(metheno)-1,5,11,13-benzodioxadiazacyclooctadecin-8-yl]methyl}sulfonyl)ethanamine], at CDK9/CycT1, the IC50 worked out at 5.9 nM and the “Selectivity CDK9 over CDK2: IC50” value is on record as 1.7. Also, in the experiment with HeLa cells (Homo sapiens, HeLa, 96 h), the IC50 came out at 105 nM.

In the case of “({[15,19-difluoro-3,4-dihydro-2H,11H-10,6-(azeno)-12,16-(metheno)-1,5,11,13-benzodioxadiazacyclooctadecin-8-yl]methyl}sulfonyl)acetic acid [Example 27]”, at CDK9/CycT1, the IC50 turned out to be 2.9 nM and the “Selectivity CDK9 over CDK2: IC50” value was 0.8. In addition, in the experiment with HeLa cells, the IC50 came to 1050 nM.
